Test system: Hepatotoxicity
Assay: Human drug-induced liver injury (DILI) modelling dataset from Ekins et al
Details: not given

| Compound | Hepatotoxicity |
| --- | --- |
| CN1C[C@H](C(=O)N[C@]2(C)O[C@@]3(O)[C@@H]4CCCN4C(=O)[C@H](Cc4ccccc4)N3C2=O)C=C2c3cccc4[nH]cc(c34)C[C@H]21.CN1C[C@H](C(=O)N[C@]2(C)O[C@@]3(O)[C@@H]4CCCN4C(=O)[C@H](Cc4ccccc4)N3C2=O)C=C2c3cccc4[nH]cc(c34)C[C@H]21.O=C(O)C(O)C(O)C(=O)O [ERGOTAMINE TARTRATE] | DILI negative (test set) |
| CCC(=O)O[C@H]1[C@H](O[C@@H]2[C@@H](C)[C@H](O[C@H]3C[C@@](C)(OC)[C@@H](O)[C@H](C)O3)[C@@H](C)C(=O)O[C@H](CC)[C@@](C)(O)[C@H](O)[C@@H](C)C(=O)[C@H](C)C[C@@]2(C)O)O[C@H](C)C[C@@H]1N(C)C.CCCCCCCCCCCCOS(=O)(=O)O [ERYTHROMYCIN ESTOLATE] | DILI positive (training set) |
| CC[C@H]1OC(=O)[C@H](C)[C@@H](O[C@H]2C[C@@](C)(OC)[C@@H](O)[C@H](C)O2)[C@H](C)[C@@H](O[C@@H]2O[C@H](C)C[C@H](N(C)C)[C@H]2O)[C@](C)(O)C[C@@H](C)C(=O)[C@H](C)[C@@H](O)[C@]1(C)O [ERYTHROMYCIN] | DILI negative (training set) |
| C[C@]12CC[C@@H]3c4ccc(O)cc4CC[C@H]3[C@@H]1CC[C@@H]2O[C@@H]1O[C@H](C(=O)O)[C@@H](O)[C@H](O)[C@H]1O [ESTRADIOL 17B GLUCURONIDE] | DILI positive (training set) |
| C[C@]12CC[C@@H]3c4ccc(O)cc4CC[C@H]3[C@@H]1CC[C@@H]2O [ESTRADIOL] | DILI negative (training set) |
| C[C@]12CC[C@@H]3c4ccc(O)cc4CC[C@H]3[C@@H]1CCC2=O [ESTRONE] | DILI positive (training set) |
| CS(=O)(=O)OCCOS(C)(=O)=O [ETHANE DIMETHANE SULFONATE] | DILI positive (test set) |
| C#C[C@]1(O)CC[C@H]2[C@@H]3CCc4cc(O)ccc4[C@H]3CC[C@@]21C [ETHINYL ESTRADIOL] | DILI positive (test set) |
| CCSCC[C@H](N)C(=O)O [ETHIONINE] | DILI positive (training set) |
| CCC1(C)CC(=O)NC1=O (stereo not drawn) [ETHOSUXIMIDE] | DILI positive (test set) |
| C#C[C@]1(OC(C)=O)CC[C@H]2[C@@H]3CCC4=C[C@@H](OC(C)=O)CC[C@@H]4[C@H]3CC[C@@]21C [ETHYNODIOL DIACETATE] | DILI positive (training set) |
| NC(=O)OCC(COC(N)=O)c1ccccc1 [FELBAMATE] | DILI positive (training set) |
| CC(C)OC(=O)C(C)(C)Oc1ccc(C(=O)c2ccc(Cl)cc2)cc1 [FENOFIBRATE] | DILI positive (training set) |
| CC(C(=O)[O-])c1cccc(Oc2ccccc2)c1.[Na+] (stereo not drawn) [FENOPROFEN SODIUM] | DILI positive (training set) |
| O=c1[nH]c(=O)n([C@@H]2O[C@H](CO)[C@@H](O)[C@@H]2F)cc1I [FIALURIDINE] | DILI positive (test set) |
| O=C(COc1ccc(Cl)cc1)N1CCN(Cc2ccc3c(c2)OCO3)CC1 [FIPEXIDE] | DILI positive (test set) |
| CC(=O)O.O=C(NCC1CCCCN1)c1cc(OCC(F)(F)F)ccc1OCC(F)(F)F (stereo not drawn) [FLECAINIDE ACETATE] | DILI positive (training set) |
| O=c1[nH]c(=O)n([C@H]2C[C@H](O)[C@@H](CO)O2)cc1F [FLOXURIDINE] | DILI positive (training set) |
| Nc1nc(=O)[nH]cc1F [FLUCYTOSINE] | DILI positive (training set) |
| CC(=O)OCC(=O)[C@@]1(O)CC[C@H]2[C@@H]3CCC4=CC(=O)CC[C@]4(C)[C@@]3(F)[C@@H](O)C[C@@]21C [FLUDROCORTISONE ACETATE] | DILI negative (training set) |

| Compound | Hepatotoxicity |
| --- | --- |
| O=C(O)c1ccccc1Nc1cccc(C(F)(F)F)c1 [FLUFENAMIC ACID] | DILI negative (test set) |
| CCOC(=O)c1ncn2c1CN(C)C(=O)c1cc(F)ccc1-2 [FLUMAZENIL] | DILI negative (training set) |
| C[C@H](C(=O)O)c1ccc2oc(-c3ccc(F)cc3)nc2c1 [FLUNOXAPROFEN] | DILI negative (test set) |
| O=c1[nH]cc(F)c(=O)[nH]1 [FLUOROURACIL] | DILI positive (test set) |
| CC(C(=O)O)c1ccc(-c2ccccc2)c(F)c1 (stereo not drawn) [FLURBIPROFEN] | DILI positive (training set) |
| CC(C)C(=O)Nc1ccc([N+](=O)[O-])c(C(F)(F)F)c1 [FLUTAMIDE] | DILI positive (training set) |
| COCCCC/C(=N\OCCN)c1ccc(C(F)(F)F)cc1 [FLUVOXAMINE] | DILI positive (training set) |
| Nc1nc2ncc(CNc3ccc(C(=O)N[C@@H](CCC(=O)O)C(=O)O)cc3)nc2c(=O)[nH]1 [FOLIC ACID] | DILI negative (training set) |
| O=C(O)P(=O)(O)O [FOSCARNET] | DILI negative (test set) |
| O=C1OCCN1/N=C/c1ccc([N+](=O)[O-])o1 [FURAZOLIDONE] | DILI positive (training set) |
| NCC1(CC(=O)O)CCCCC1 [GABAPENTIN] | DILI negative (training set) |
| CC[N+](CC)(CC)CCOc1cccc(OCC[N+](CC)(CC)CC)c1OCC[N+](CC)(CC)CC.[I-].[I-].[I-] [GALLAMINE TRIETHIODIDE] | DILI negative (training set) |
| COc1c(N2CCNC(C)C2)c(F)cc2c(=O)c(C(=O)O)cn(C3CC3)c12 (stereo not drawn) [GATIFLOXACIN] | DILI negative (training set) |
| COc1cc2ncnc(Nc3ccc(F)c(Cl)c3)c2cc1OCCCN1CCOCC1 [GEFITINIB] | DILI positive (test set) |
| Cc1ccc(C)c(OCCCC(C)(C)C(=O)O)c1 [GEMFIBROZIL] | DILI positive (training set) |
| Cc1ccc(S(=O)(=O)NC(=O)NN2CC3CCCC3C2)cc1 (stereo not drawn) [GLICLAZIDE] | DILI negative (training set) |
| CCC1=C(C)CN(C(=O)NCCc2ccc(S(=O)(=O)NC(=O)N[C@H]3CC[C@H](C)CC3)cc2)C1=O [GLIMEPIRIDE] | DILI negative (training set) |
| N[C@H]1C(O)O[C@H](CO)[C@@H](O)[C@@H]1O (stereo partly drawn) [GLUCOSAMINE] | DILI positive (training set) |
| CCC1(c2ccccc2)CCC(=O)NC1=O (stereo not drawn) [GLUTETHIMIDE] | DILI positive (test set) |
| COC1=CC(=O)C[C@@H](C)[C@]12Oc1c(Cl)c(OC)cc(OC)c1C2=O [GRISEOFULVIN] | DILI positive (training set) |

| Compound | Hepatotoxicity |
| --- | --- |
| N=C(N)NCCN1CCCCCCC1.N=C(N)NCCN1CCCCCCC1.O=S(=O)(O)O [GUANETHIDINE SULFATE] | DILI positive (test set) |
| Oc1c(Cl)cc(Cl)c(Cl)c1Cc1c(O)c(Cl)cc(Cl)c1Cl [HEXACHLOROPHENE] | DILI positive (test set) |
| CCN(CC)CCNc1ccc(CO)c2sc3ccccc3c(=O)c12 [HYCANTHONE] | DILI positive (training set) |
| NN [HYDRAZINE] | DILI positive (test set) |
| NS(=O)(=O)c1cc2c(cc1Cl)NCNS2(=O)=O [HYDROCHLOROTHIAZIDE] | DILI positive (training set) |
| C[C@]12CCC(=O)C=C1CC[C@@H]1[C@@H]2[C@@H](O)C[C@@]2(C)[C@H]1CC[C@]2(O)C(=O)CO [HYDROCORTISONE] | DILI negative (training set) |
| NC(=O)NO [HYDROXYUREA] | DILI positive (training set) |
| CC(C)Cc1ccc(CC(=O)O)cc1 [IBUFENAC] | DILI positive (test set) |
| CC(C)Cc1ccc(C(C)C(=O)O)cc1 (stereo not drawn) [IBUPROFEN] | DILI negative (test set) |
| CC(=O)[C@]1(O)Cc2c(O)c3c(c(O)c2[C@@H](O[C@H]2C[C@H](N)[C@H](O)[C@H](C)O2)C1)C(=O)c1ccccc1C3=O.Cl [IDARUBICIN HYDROCHLORIDE] | DILI negative (training set) |
| O=c1[nH]c(=O)n([C@H]2C[C@H](O)[C@@H](CO)O2)cc1I [IDOXURIDINE] | DILI positive (training set) |
| O=P1(NCCCl)OCCCN1CCCl (stereo not drawn) [IFOSFAMIDE] | DILI positive (test set) |
| CN(C)CCCN1c2ccccc2CCc2ccccc21.Cl [IMIPRAMINE HYDROCHLORIDE] | DILI positive (training set) |
| Nc1cc(-c2ccncc2)c[nH]c1=O [INAMRINONE] | DILI positive (training set) |
| CC1(c2ccccc2)Cc2cc(OCC(=O)O)c(Cl)c(Cl)c2C1=O (stereo not drawn) [INDACRINONE] | DILI positive (test set) |
| CC(C)(C)NC(=O)[C@@H]1CN(Cc2cccnc2)CCN1C[C@@H](O)C[C@@H](Cc1ccccc1)C(=O)N[C@H]1c2ccccc2C[C@H]1O.O=S(=O)(O)O [INDINAVIR SULFATE] | DILI negative (test set) |
| COc1ccc2c(c1)c(CC(=O)O)c(C)n2C(=O)c1ccc(Cl)cc1 [INDOMETHACIN] | DILI positive (training set) |
| O[C@H]1[C@H](O)[C@@H](O)[C@H](O)[C@@H](O)[C@H]1O [INOSITOL] | DILI negative (test set) |
| C[C@H](O)C(=O)Nc1c(I)c(C(=O)NC(CO)CO)c(I)c(C(=O)NC(CO)CO)c1I [IOPAMIDOL] | DILI positive (test set) |
| CC(C)NNC(=O)c1ccncc1 [IPRONIAZID] | DILI positive (test set) |

Same assay, conditions: Liver

| Compound | Hepatotoxicity |
| --- | --- |
| OCCO [ETHYLENE GLYCOL] | DILI positive (test set) |
| COc1cc([C@@H]2c3cc4c(cc3[C@@H](O[C@@H]3O[C@@H]5CO[C@@H](C)O[C@H]5[C@H](O)[C@H]3O)[C@H]3COC(=O)[C@H]23)OCO4)cc(OC)c1O [ETOPOSIDE] | DILI positive (training set) |
| NC(N)=Nc1nc(CSCCC(N)=NS(N)(=O)=O)cs1 [FAMOTIDINE] | DILI negative (training set) |
| CC(C)(C(=O)O)c1ccc(C(O)CCCN2CCC(C(O)(c3ccccc3)c3ccccc3)CC2)cc1 (stereo not drawn) [FEXOFENADINE] | DILI negative (test set) |
| OC(Cn1cncn1)(Cn1cncn1)c1ccc(F)cc1F [FLUCONAZOLE] | DILI positive (training set) |
| CC(C)n1c(/C=C/C(O)CC(O)CC(=O)O)c(-c2ccc(F)cc2)c2ccccc21 (stereo not drawn) [FLUVASTATIN] | DILI negative (training set) |
| O=C(OCC(O)CO)c1ccccc1Nc1ccnc2cc(Cl)ccc12 (stereo not drawn) [GLAFENINE] | DILI positive (training set) |
| Cc1c(F)c(N2CCNC(C)C2)cc2c1c(=O)c(C(=O)O)cn2C1CC1 (stereo not drawn) [GREPAFLOXACIN] | DILI positive (test set) |
